Key:
AXL = molecular target: T1, AXL (Homo sapiens, UniProt P30530); test: kinase assay IC50 (called cell-based kinase assay in the Figure […] legend); also reduced phospho-AXL in HCC827-osi cells
T1 sequence (P30530 26-894): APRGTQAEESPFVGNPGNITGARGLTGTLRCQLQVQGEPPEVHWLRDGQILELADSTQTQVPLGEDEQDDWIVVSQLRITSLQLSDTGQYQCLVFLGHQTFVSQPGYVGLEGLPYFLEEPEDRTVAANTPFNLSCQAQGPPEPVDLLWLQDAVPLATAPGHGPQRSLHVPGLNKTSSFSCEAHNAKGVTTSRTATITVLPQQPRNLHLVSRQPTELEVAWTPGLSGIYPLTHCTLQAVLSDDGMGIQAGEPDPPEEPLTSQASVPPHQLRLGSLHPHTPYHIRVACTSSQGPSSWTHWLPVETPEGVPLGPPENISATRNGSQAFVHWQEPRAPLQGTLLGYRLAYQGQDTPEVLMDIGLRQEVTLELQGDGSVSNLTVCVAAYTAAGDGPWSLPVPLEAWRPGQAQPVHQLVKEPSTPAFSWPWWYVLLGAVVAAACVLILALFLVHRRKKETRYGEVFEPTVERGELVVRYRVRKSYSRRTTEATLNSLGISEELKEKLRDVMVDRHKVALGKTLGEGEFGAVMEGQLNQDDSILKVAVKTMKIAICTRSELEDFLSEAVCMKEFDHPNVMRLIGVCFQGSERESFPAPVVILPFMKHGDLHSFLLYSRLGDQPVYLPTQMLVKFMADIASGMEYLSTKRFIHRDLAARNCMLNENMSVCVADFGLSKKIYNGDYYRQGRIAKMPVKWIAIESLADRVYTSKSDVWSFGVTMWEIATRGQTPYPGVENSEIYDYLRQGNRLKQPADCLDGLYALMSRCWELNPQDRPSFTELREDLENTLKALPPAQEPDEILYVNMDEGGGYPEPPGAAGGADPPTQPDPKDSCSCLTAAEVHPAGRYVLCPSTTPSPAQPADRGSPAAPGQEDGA

[1] = molecular target: FGFR1 (fibroblast growth factor receptor 1) (Homo sapiens, UniProt P11362); test: kinase assay IC50 (called cell-based kinase assay in the Figure […] legend); also reduced phospho-FGFR1 in HCC827-osi cells
Chain of FGFR1 (fibroblast growth factor receptor 1) (P11362 22-822): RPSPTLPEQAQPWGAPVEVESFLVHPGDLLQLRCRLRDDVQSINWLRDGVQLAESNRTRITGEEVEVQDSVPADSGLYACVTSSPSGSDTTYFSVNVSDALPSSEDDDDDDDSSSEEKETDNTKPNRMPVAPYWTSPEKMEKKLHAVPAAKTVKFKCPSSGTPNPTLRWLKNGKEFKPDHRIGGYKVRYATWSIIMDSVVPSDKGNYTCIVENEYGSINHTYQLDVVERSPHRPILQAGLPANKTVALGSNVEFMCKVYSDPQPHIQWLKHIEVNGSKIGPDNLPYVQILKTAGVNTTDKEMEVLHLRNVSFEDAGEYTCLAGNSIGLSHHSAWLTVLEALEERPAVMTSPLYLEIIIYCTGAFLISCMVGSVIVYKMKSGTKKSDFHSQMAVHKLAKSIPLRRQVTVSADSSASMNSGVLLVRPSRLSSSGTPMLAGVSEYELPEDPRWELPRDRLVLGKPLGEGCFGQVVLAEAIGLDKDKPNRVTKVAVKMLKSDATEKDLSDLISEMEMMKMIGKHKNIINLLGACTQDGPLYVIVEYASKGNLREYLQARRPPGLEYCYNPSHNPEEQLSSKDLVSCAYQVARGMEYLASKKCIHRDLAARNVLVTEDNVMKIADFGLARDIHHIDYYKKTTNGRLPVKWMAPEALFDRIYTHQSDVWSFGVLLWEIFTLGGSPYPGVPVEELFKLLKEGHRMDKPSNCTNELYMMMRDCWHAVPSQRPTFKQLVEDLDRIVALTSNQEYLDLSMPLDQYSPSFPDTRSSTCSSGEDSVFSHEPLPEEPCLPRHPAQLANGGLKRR

SMILES: CN1C(=O)N(c2cc(NC(=O)c3cccc(C(F)(F)F)c3)cnc2Cl)Cc2cnc(Nc3ccccc3)nc21 [AX-0085]
- IC50 (AXL): 4.4 nM
- IC50 [1]: 2.2 nM
